Source: patent US6214537A, “Synthetic peptides and mixtures thereof for detecting HIV antibodies” (Biochem Immunosystems, Inc., priority 1988, dated 2001)

The compounds below were run on HIV-2 antibodies (assay: ELISA, single peptides identifying HIV-2 positive sera). Conditions: 5 tested.
Format: binding, human
Protocol: A preferred convenient and classical technique for the determination of antibodies against AIDS virus using a peptide or a peptide mixture of the present invention is an enzyme-linked immunosorbent assay (ELISA). According to this test a peptide or a peptide mixture of the present invention is adsorbed onto the wells of a microtiter plate. The wells are then treated with sera to be tested. After washing, anti-human IgG labeled with peroxidase is added to the wells. The determination of the peroxidase is performed with a corresponding substrate, e.g. with o-phenylene diamine. Also in this procedure the peroxidase can be exchanged by another label, e.g. by a radioactive or fluorescence label.
The cyclic peptides of the present invention and their mixtures with one or more linear peptides were tested in accordance with the ELISA test described previously against a variety of sera, some of which were confirmed positive and others which were confirmed negative.
TABLE 4 provides the results of single peptides which were individually evaluated in identifying known HIV-2 positive sera.
Each well of the microtiter plate is saturated with 100 μl of a solution containing a peptide or mixture of peptides (5 μg/ml) and left overnight. The wells are emptied and washed twice with a washing buffer (Tris, 0.043M; NaCl, 0.5M;thimerosal, 0.01% w/v; Tween 20, 0.05% v/v; pH 7.4). The wells are then saturated with 0.35 ml of washing buffer for 1 hr. at 37° C. and washed once with the same buffer. Serum samples to be analyzed are diluted with specimen buffer (washing buffer plus casein, 0.05% w/v). The wells are rinsed with washing buffer prior to the addition of the diluted serum sample (0.1 ml). These are left to incubate for 1 hr. at room temperature. The wells are then emptied, washed twice rapidly and then once for two minutes with washing buffer. […] The wells are then emptied and washed twice rapidly with washing buffer and then five times in which the buffer was in contact with the well 2 minutes per washing.
The substrate solution (3,3', 5,5'-tetramethylbenzidine, 8 mg per ml of DMSO) is diluted with 100 volumes 0.1M citrate-acetate buffer, pH 5.6 containing 0.1% v/v of 30% H2 O2 and added to each well (0.1 ml per well). After 10 minutes the contents of each well is treated with 0.1 ml 2N H2 SO4 and the optical density read at 450 nm. All determinations are done in duplicate.

| SMILES | % Positive Sera correctly Identified [%] |
| --- | --- |
| CC(C)[C@@H]1NC(=O)[C@H](CCC(N)=O)NC(=O)[C@H](CCCNC(=N)N)NC(=O)[C@H](Cc2ccccc2)NC(=O)[C@H](C)NC(=O)[C@@H](NC(=O)CN)CSSC[C@@H](C(=O)N[C@@H](Cc2c[nH]cn2)C(=O)N[C@H](C(=O)N[C@H](C(=O)N[C@H](C(=O)N2CCC[C@H]2C(=O)N[C@@H](Cc2c[nH]c3ccccc23)C(=O)N[C@H](C(=O)N[C@@H](CC(N)=O)C(=O)N[C@@H](CC(=O)O)C(=O)N[C@@H](CO)C(=O)O)C(C)C)C(C)C)[C@@H](C)O)[C@@H](C)O)NC1=O [Peptide 201] | 100 |
| CC[C@H](C)[C@H](NC(=O)[C@H](C)NC(=O)[C@@H](NC(=O)[C@@H](NC(=O)[C@@H](N)CCCNC(=N)N)C(C)C)[C@@H](C)O)C(=O)N[C@@H](CCC(=O)O)C(=O)N[C@@H](CCCCN)C(=O)N[C@@H](Cc1ccc(O)cc1)C(=O)N[C@@H](CC(C)C)C(=O)N[C@@H](CCC(N)=O)C(=O)N[C@@H](CC(=O)O)C(=O)N[C@@H](CCC(N)=O)C(=O)N[C@@H](C)C(=O)N[C@@H](CCCNC(=N)N)C(=O)N[C@@H](CC(C)C)C(=O)N[C@@H](CC(N)=O)C(=O)N[C@@H](CO)C(=O)N[C@@H](Cc1c[nH]c2ccccc12)C(=O)NCC(=O)N[C@H]1CSSC[C@@H](C(N)=O)NC(=O)[C@H](C(C)C)NC(=O)[C@H](CCC(N)=O)NC(=O)[C@H](CCCNC(=N)N)NC(=O)[C@H](Cc2ccccc2)NC(=O)[C@H](C)NC1=O [Peptide 146] | 100 |
| CC[C@H](C)[C@H](NC(=O)[C@H](C)NC(=O)[C@@H](NC(=O)[C@@H](NC(=O)[C@@H](N)CCCNC(=N)N)C(C)C)[C@@H](C)O)C(=O)N[C@@H](CCC(=O)O)C(=O)N[C@@H](CCCCN)C(=O)N[C@@H](Cc1ccc(O)cc1)C(=O)N[C@@H](CC(C)C)C(=O)N[C@@H](CCC(N)=O)C(=O)N[C@@H](CC(=O)O)C(=O)N[C@@H](CCC(N)=O)C(=O)N[C@@H](C)C(=O)N[C@@H](CCCNC(=N)N)C(=O)N[C@@H](CC(C)C)C(=O)N[C@@H](CC(N)=O)C(=O)N[C@@H](CO)C(=O)N[C@@H](Cc1c[nH]c2ccccc12)C(=O)NCC(=O)N[C@H]1CSSC[C@@H](C(=O)N[C@@H](Cc2c[nH]cn2)C(=O)N[C@H](C(=O)N[C@H](C(=O)N[C@H](C(=O)N2CCC[C@H]2C(=O)N[C@@H](Cc2c[nH]c3ccccc23)C(=O)N[C@H](C(=O)N[C@@H](CC(N)=O)C(=O)N[C@@H](CC(=O)O)C(=O)N[C@@H](CO)C(=O)O)C(C)C)C(C)C)[C@@H](C)O)[C@@H](C)O)NC(=O)[C@H](C(C)C)NC(=O)[C@H](CCC(N)=O)NC(=O)[C@H](CCCNC(=N)N)NC(=O)[C@H](Cc2ccccc2)NC(=O)[C@H](C)NC1=O [Peptide 202] | 100 |
| CC[C@H](C)[C@H](NC(=O)[C@H](CCC(=O)O)NC(=O)[C@@H](NC(=O)[C@@H](N)CC(C)C)C(C)C)C(=O)N[C@H](C(=O)N1CCC[C@H]1C(=O)N[C@H](C(=O)NCC(=O)N[C@@H](Cc1ccccc1)C(=O)N[C@@H](C)C(=O)N1CCC[C@H]1C(=O)N[C@H](C(=O)N[C@@H](CCCCN)C(=O)N[C@@H](CCC(=O)O)C(=O)N[C@@H](CCCCN)C(=O)N[C@@H](CCCNC(=N)N)C(=O)O)[C@@H](C)O)[C@@H](C)CC)[C@@H](C)O [Peptide 204] | 100 |
| CC[C@H](C)[C@H](NC(=O)[C@H](CCC(=O)O)NC(=O)[C@@H](NC(=O)[C@@H](N)CC(C)C)C(C)C)C(=O)N[C@H](C(=O)N1CCC[C@H]1C(=O)N[C@H](C(=O)NCC(=O)N[C@@H](Cc1ccccc1)C(=O)N[C@@H](C)C(=O)N1CCC[C@H]1C(=O)N[C@H](C(=O)N[C@@H](CCCCN)C(=O)N[C@@H](CCC(=O)O)C(=O)N[C@@H](CCCCN)C(=O)N[C@@H](CCCNC(=N)N)C(=O)N[C@@H](Cc1ccc(O)cc1)C(=O)N[C@@H](CO)C(=O)N[C@@H](CO)C(=O)N[C@@H](C)C(=O)N[C@@H](Cc1c[nH]cn1)C(=O)NCC(=O)N[C@@H](CCCNC(=N)N)C(=O)O)[C@@H](C)O)[C@@H](C)CC)[C@@H](C)O [Peptide 203] | 100 |
